Reference: ChEMBL document CHEMBL1136451, “Semi-synthetic glycopeptide antibacterials” (Bioorg Med Chem Lett, 2003)
In brackets after ≈: the same amount, converted by molar mass.

Columns and labels:
Staphylococcus aureus [1] = assay: Antibacterial activity against Vancomycin resistant staphylococcus aureus (VRSA); format: functional
[2] = Half life of compound was determined in man with once daily dosing; format: ADME; conditions: human
[3] = Cmax (Tissue distribution) of compound was determined at a dose of 5 mg/kg in human; format: ADME, organism-based; design: dose 5 mg/kg; conditions: in vivo
Streptococcus agalactiae = assay: Inhibitory activity of compound against Streptococcus agalactiae KPB-01; format: functional, organism-based
Enterococcus faecalis = assay: Inhibitory activity of compound against VanA Enterococcus faecalis MGH-01; format: functional, organism-based
Staphylococcus aureus [4] = assay: Inhibitory activity of compound against Staphylococcus aureus ATCC 33591; format: functional, organism-based
Enterococcus sp. = assay: Antibacterial activity against Enterococcus species., VanA; format: functional
Staphylococcus aureus [5] = assay: Antibacterial activity against Methicillin resistant staphylococcus aureus (MRSA); format: functional
Streptococcus pneumoniae = assay: Antibacterial activity against Streptococcus pneumoniae; format: functional

| SMILES | MIC (Staphylococcus aureus [1]) | MIC90 (Enterococcus sp.) | MIC90 (Staphylococcus aureus [5]) | MIC90 (Streptococcus pneumoniae) | other results |
| --- | --- | --- | --- | --- | --- |
| CCCCCCCCCCNCCN[C@@]1(C)C[C@H](O[C@H]2[C@H](Oc3c4cc5cc3Oc3ccc(cc3Cl)[C@@H](O)[C@]3(C)NC(=O)[C@H](NC(=O)[C@@H]5NC(=O)[C@H](CC(N)=O)NC(=O)[C@](C)(NC(=O)[C@@H](CC(C)C)NC)[C@H](O)c5ccc(c(Cl)c5)O4)c4ccc(O)c(c4)-c4c(O)cc(O)cc4[C@@H](C(=O)O)NC3=O)O[C@H](CO)[C@@H](O)[C@@H]2O)O[C@@H](C)C1O (stereo not given in full) | 0.4 µg/mL (≈ 0.241 µM) | – | – | – | – |
| CCCCCCCCCCNCCN[C@@]1(C)C[C@H](O[C@H]2[C@H](Oc3c4cc5cc3Oc3ccc(cc3Cl)[C@@H](O)[C@@H](NC(=O)[C@@H](CC(C)C)NC)C(=O)N[C@@H](CC(N)=O)C(=O)N[C@H]5C(=O)N[C@H]3C(=O)N[C@H](C(=O)N[C@H](C(=O)O)c5cc(O)c(CNCP(=O)(O)O)c(O)c5-c5cc3ccc5O)[C@H](O)c3ccc(c(Cl)c3)O4)O[C@H](CO)[C@@H](O)[C@@H]2O)O[C@@H](C)[C@H]1O | – | – | – | – | half-life [2]: 7 h; Cmax [3]: 45000 ng/mL |
| CCCCCCCCCCNCCN[C@@]1(C)C[C@H](O[C@H]2[C@H](Oc3c4cc5cc3Oc3ccc(cc3Cl)[C@@H](O)[C@@](C)(NC(=O)[C@@H](CC(C)C)NC)C(=O)N[C@@H](CC(N)=O)C(=O)N[C@H]5C(=O)N[C@H]3C(=O)N[C@H](C(=O)N[C@H](C(=O)O)c5cc(O)c(CNCP(=O)(O)O)c(O)c5-c5cc3ccc5O)[C@H](O)c3ccc(c(Cl)c3)O4)O[C@H](CO)[C@@H](O)[C@@H]2O)O[C@@H](C)C1O (stereo not given in full) [listing 1 of 2 here] | – | – | – | – | IC50 (Streptococcus agalactiae): 15 µg/mL (≈ 8.48 µM); IC50 (Enterococcus faecalis): 10 µg/mL (≈ 5.65 µM); IC50 (Staphylococcus aureus [4]): 23 µg/mL (≈ 13 µM) |
| CCCCCCCCCCNCCN[C@@]1(C)C[C@H](O[C@H]2[C@H](Oc3c4cc5cc3Oc3ccc(cc3Cl)[C@@H](O)[C@@](C)(NC(=O)[C@@H](CC(C)C)NC)C(=O)N[C@@H](CC(N)=O)C(=O)N[C@H]5C(=O)N[C@H]3C(=O)N[C@H](C(=O)N[C@H](C(=O)O)c5cc(O)c(CNCP(=O)(O)O)c(O)c5-c5cc3ccc5O)[C@H](O)c3ccc(c(Cl)c3)O4)O[C@H](CO)[C@@H](O)[C@@H]2O)O[C@@H](C)C1O (stereo not given in full) [listing 2 of 2 here] | 2 µg/mL (≈ 1.13 µM) | 8 µg/mL (≈ 4.52 µM) | 1 µg/mL (≈ 0.565 µM) | 0.008 µg/mL (≈ 0.00452 µM) | – |
| CN[C@H]1C(=O)N[C@@H]2Cc3ccc(cc3)Oc3cc4cc(c3O[C@@H]3O[C@H](C(=O)O)[C@@H](O)[C@H](O)[C@H]3NC(=O)CCCCCCCCC(C)C)Oc3ccc(cc3Cl)[C@@H](O)[C@@H]3NC(=O)[C@H](NC(=O)[C@@H]4NC(=O)[C@@H](NC2=O)c2cc(cc(O)c2Cl)Oc2cc1ccc2O)c1ccc(O)c(c1)-c1c(O[C@H]2O[C@H](CO)[C@@H](O)[C@H](O)[C@@H]2O)cc(O)cc1[C@@H](C(=O)NCCCN(C)C)NC3=O [DALBAVANCIN] | – | 128 µg/mL (≈ 70.5 µM) | 0.25 µg/mL (≈ 0.138 µM) | 0.06 µg/mL (≈ 0.033 µM) | – |
| CN[C@H](CC(C)C)C(=O)N[C@H]1C(=O)N[C@@H](CC(N)=O)C(=O)N[C@H]2C(=O)N[C@H]3C(=O)N[C@H](C(=O)N[C@H](C(=O)O)c4cc(O)cc(O)c4-c4cc3ccc4O)[C@H](O[C@H]3C[C@](C)(N)[C@@H](O)[C@H](C)O3)c3ccc(c(Cl)c3)Oc3cc2cc(c3O[C@@H]2O[C@H](CO)[C@@H](O)[C@H](O)[C@H]2O[C@H]2C[C@](C)(NCc3ccc(-c4ccc(Cl)cc4)cc3)[C@@H](O)[C@H](C)O2)Oc2ccc(cc2Cl)[C@H]1O [ORITAVANCIN] | 0.5 µg/mL (≈ 0.279 µM) | 4 µg/mL (≈ 2.23 µM) | 1 µg/mL (≈ 0.558 µM) | 0.008 µg/mL (≈ 0.00446 µM) | – |
| CN[C@H](CC(C)C)C(=O)N[C@H]1C(=O)N[C@@H](CC(N)=O)C(=O)N[C@H]2C(=O)N[C@H]3C(=O)N[C@H](C(=O)N[C@H](C(=O)O)c4cc(O)cc(O)c4-c4cc3ccc4O)[C@H](O)c3ccc(c(Cl)c3)Oc3cc2cc(c3O[C@@H]2O[C@H](CO)[C@@H](O)[C@H](O)[C@H]2O[C@H]2C[C@](C)(N)[C@H](O)[C@H](C)O2)Oc2ccc(cc2Cl)[C@H]1O [VANCOMYCIN] | – | 4 µg/mL (≈ 2.76 µM) | 1 µg/mL (≈ 0.69 µM) | 0.008 µg/mL (≈ 0.00552 µM) | – |
